Data on 4 compounds can be found in ChEMBL document CHEMBL1146465, “Three new oleanane-type triterpenes from Ludwigia octovalvis with cytotoxic activity against two human cancer cell lines” (J Nat Prod, 2004).

The subject of one assay is KB. Nature of the assay: Cytotoxicity against human KB cells after 72 hrs by methylene blue assay. It is filed as functional, cell-based.
In a further assay the test system is HT-29. Briefly: Cytotoxicity against human HT-29 cells after 72 hrs by methylene blue assay. It is filed as functional, cell-based. The conditions noted are these: HT-29, 72 h.

As to `CC1(C)CC[C@]2(C(=O)O)CC[C@]3(C)C(=CC[C@@H]4[C@@]5(C)CC[C@H](OC(=O)/C=C\c6ccc(O)cc6)[C@@](C)(CO)[C@@H]5CC[C@]43C)[C@@H]2C1`, the IC50 is 1.2 µM with KB and 2.1 µM with HT-29.
On the same counts, the results for `CC1(C)CC[C@]2(C(=O)O)CC[C@]3(C)C(=CC[C@@H]4[C@@]5(C)CC[C@H](O)[C@@](C)(COC(=O)/C=C\c6ccc(O)cc6)[C@@H]5CC[C@]43C)[C@@H]2C1` are 1.6 µM and 3.6 µM.
Turning to `CC1(C)CC[C@]2(C(=O)O)CC[C@]3(C)C(=CC[C@@H]4[C@@]5(C)CC[C@H](O)[C@@](C)(COC(=O)/C=C/c6ccc(O)cc6)[C@@H]5CC[C@]43C)[C@@H]2C1`, the half-maximal inhibitory concentration (IC50) in the assay with KB was determined as 1.3 µM; with HT-29, 2.4 µM.
`COc1cc([C@@H]2c3cc4c(cc3[C@@H](O[C@@H]3O[C@@H]5CO[C@@H](C)O[C@H]5[C@H](O)[C@H]3O)[C@H]3COC(=O)[C@H]23)OCO4)cc(OC)c1O` [ETOPOSIDE]: the IC50 is 1.1 µM in the assay with KB and 2.3 µM in the assay with HT-29.

One may read the IC50 as the concentration that inhibits the measured activity by half.
